Ends that are not written are not given here.
B1: G-CSF: granulocyte colony-stimulating factor, positive reference (protein, UniProt P09919 31-207, looked up)
Granulocyte …: TPLGPASSLPQSFLLKCLEQVRKIQGDGAALQEKLVSECATYKLCHPEELVLLGHSLGIPWAPLSSCPSQALQLAGCLSQLHSGLFLYQGLLQALEGISPELGPTLDTLQLDVADFATTIWQQMEELGMAPALQPTQGAMPAFASAFQRRAGGVLVASHLQSFLEVSYRVLRHLAQP

Key:
[1] = test system: white blood cells, monocytes, immature cells; test: Total and differential blood cell counts after cyclophosphamide (CFA) chemoablation; type: in vivo, mice; details: CFA-induced aplasia
Description: FIGS. 2A-C—OGP(10-14) stimulates blood cell counts in dose and time dependent manner in mice undergoing chemoablation of hematopoietic tissues Male ICR mice weighing 25 gm each were subjected to chemoablation using cyclophosphamide (CFA), 5 mg/mouse, injected intraperitoneally on days 0 and 1, one injection each day. OGP(10-14) was dissolved in “sterile water for injection” and 0.1 ml of the indicated doses or water only (vehicle) was administered subcutaneously in the nape daily from day −7 to day −1 and from day +2 to day +8. Data are mean±SD obtained in 20 animals per condition. *: significant over CFA+vehicle, p<0.05; **: significant over 1 nmol OGP(10-14) group, p<0.05.
In this set of experiments bone marrow ablation was induced by an intraperitoneal injection of cyclophophamide (CFA, SIGMA, 5 mg/mouse in 150 (1 sterile PBS) for two consecutive days (designated “day 0” and “day 1”. This protocol has been demonstarted to induce severe, reversible leucopoena with L. D. <30 [Spangrude, G. J. et al, Science, 241:58 (1988)]. The lowest bone marrow cell counts were recorded six days after the first injection. […]

[2] = Evaluation of OGP(10-14) toxicity after 15 days of subcutaneous administration; type: in vivo, mice; details: 10 nmol/mouse s.c., versus placebo-treated controls
Description: Fifty-five mice were evaluated for possible OGP(10-14)-related toxicity after 15 days of subcutaneous administration, at the dose of 10 nmol/mouse, and results were compared to those obtained in 30 placebo-treated controls.

[3] = test system: CFU-GM, CFU-GEMM and BFU-E; test: Ex vivo progenitor cell (colony forming) assays on bone marrow of treated chemoablated mice; type: in vivo; details: bone marrow of CFA-ablated mice, 10 nmol/day s.c.
Description: Male ICR mice weighing 25 gm each were subjected to chemoablation using cyclophosphamide (CFA), 5 mg/mouse, injected intraperitoneally on days 0 and 1, one injection each day. OGP(10-14) was dissolved in “sterile water for injection” at 100 nmol/ml concentration and 0.1 ml of this solution or water only (vehicle) was administered subcutaneously in the nape daily for the indicated period(s). Bone marrow was harvested on day 9 and analyzed for colony forming units. Data are meam±SD obtained in 10 animals per condition.
To evaluate different dosing regimens of OGP(10-14), chemoablated mice were subjected to daily treatment with OGP(10-14), as outlined in FIG. 4. The mice were sacrificed on day +15, the femoral bone marrow was flushed and single cell suspensions (prepared as above) were subjected to ex vivo progenitor cell (colony forming) assays. The OGP(10-14) effect on the formation of CFU-GM, CFU-GEMM and BFU-E was compared to that of G-CSF (FIG. 4).
Bone marrow cells were recovered on day +10 after injection of CFA from all groups. Cells were diluted to 2×10^6/ml in Iscove's Modified Dulbecco Medium(IMFM) with 2% FBS and added to methylcellulose medium according to the manufacturer's recommendations (MethoCult, StemCell Technologies Inc., Vancouver, Canada). 2×10^4 cells were plated in each test. Both M3434 (for murine GM-CFU, and GEMM-CFU) and M3334 for (murine BFU-E assay) were used. M3434 was supplemented with recombinant murine interleukine-3 (rmIL-3, 10 ng/ml), recombinant human interleukine-6 (rhIL-6, 10 ng/ml), recombinant murine stem cell factor (rmSCF, 50 ng/ml) and recombinant human erythropoietin (rhEpo, 3 U/ml). […] the only factor included was Epo. Duplicate tests for each mouse were blindly examined after 14 days of incubation according to the protocol procedures.

[4] = OGP(10-14) effect only where treatment began 7 days before chemoablation

Row | Molecule | toxicity at the employed doses [1] | haematological parameters: number of WBC, RBC, PLT, Hb level [2] | survival, behaviour, body weight gain and gross examination [2] | CFU-GM [3] | BFU-E [3, 4] | CFU-GEMM [3, 4]
1 | YGFGG [OGP(10-14), Tyr-Gly-Phe-Gly-Gly] | without any valuable toxicity | did not induce any significant modifications | No differences were found | – | – | –
2 | B1 | – | – | – | had an effect | effect only on the CFU-GM | effect only on the CFU-GM
